#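 48-hour exposure; five concentrations; linearly interpolated endpoints. Here, GI50 denotes the concentration required for 50% inhibition of growth. Definition used: TGI = concentration required for complete inhibition of growth.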
# Columns and labels:
# Test in all cases: DTP human tumour cell line panel, 48 h
# EKVX NSCLC = test system: EKVX NSCLC
# OVCAR-8 ovarian = test system: OVCAR-8 ovarian
# MALME-3M melanoma = test system: MALME-3M melanoma
# A498 renal = test system: A498 renal
# KM12 colon = test system: KM12 colon
# UACC-62 melanoma = test system: UACC-62 melanoma
# SF-268 CNS = test system: SF-268 CNS
# HCT-116 colon = test system: HCT-116 colon
# CCRF-CEM leukemia = test system: CCRF-CEM leukemia
# 786-0 renal = test system: 786-0 renal
# SNB-75 CNS = test system: SNB-75 CNS
# M14 melanoma = test system: M14 melanoma
SMILES,TGI (EKVX NSCLC) [µM],TGI (OVCAR-8 ovarian) [µM],TGI (MALME-3M melanoma) [µM],TGI (A498 renal) [µM],TGI (KM12 colon) [µM],TGI (UACC-62 melanoma) [µM],TGI (SF-268 CNS) [µM],TGI (HCT-116 colon) [µM],TGI (CCRF-CEM leukemia) [µM],TGI (786-0 renal) [µM],TGI (SNB-75 CNS) [µM],TGI (M14 melanoma) [µM],GI50 (OVCAR-8 ovarian) [µM],GI50 (SF-268 CNS) [µM],GI50 (HCT-116 colon) [µM],GI50 (CCRF-CEM leukemia) [µM]
O=c1ccn(CC2(CO)CCCC2)c(=O)[nH]1,> 100,> 100,> 100,> 100,> 100,> 100,> 100,> 100,> 100,> 100,> 100,,,,,
CCN(CC)CCC(=O)c1ccc(Sc2ccc(F)cc2)cc1,41.8,48.1,33.4,45.7,30.6,31.1,35.1,33.6,34,23.6,32.2,54.6,,,,
C=CCc1[nH]c2c(OCc3ccccc3)cc(N(CC=C)C(C)=O)cc2c1C,21,27.4,30.4,25,30.1,26.9,24.6,24.8,75.9,28,23.4,21.8,,,,
COc1ccc(CC2C3=C(CCN2C(=O)C2CCC2)CC2(CC3)OCCO2)cc1O (stereo not given),> 100,> 100,> 100,> 100,> 100,> 100,> 100,> 100,> 100,> 100,52.4,63.1,,,,
C1=NCCN2CCN(CCN=Cc3ccccc3OCc3cccc(n3)COc3ccccc31)CC2,> 50,35.5,32.4,> 50,26.2,7.8,21.1,18.8,> 50,39.5,32.5,> 50,,,,
CCCC(=O)Nc1cc(/C=C/C(=O)N2CC(CCl)c3c2cc(OCc2ccccc2)c2[nH]cc(C)c32)n(C)c1 (stereo not given),0.635,0.202,0.353,1.14,0.602,0.0934,0.907,0.225,0.244,2.89,0.381,,,,,
CCOc1ccc2nc3nc(=O)[nH]c(C)c3c(NCCCN(CC)CC)c2c1,> 100,> 100,> 100,> 100,> 100,> 100,> 100,> 100,> 100,> 100,> 100,> 100,,,,
N#C[C@H](C(=O)c1ccccc1F)c1nc2ccccc2s1,> 100,> 100,56.2,> 100,38.6,> 100,> 100,61.3,73.9,> 100,> 100,> 100,,,,
CC1=NN(c2nc(N)nc(CBr)n2)C(C)(C)C1,15,18.4,7.54,25.7,23.5,21.7,23,17.4,0.983,1.78,21.7,21.2,,,,
COc1ccc(OC)c(CSc2ccc(OC)c(OC)c2)c1,> 100,> 100,> 100,99.3,> 100,> 100,> 100,> 100,> 100,> 100,> 100,> 100,,,,
c1ccc2c(c1)NCCC(=NC1CCCCC1)N2,> 100,> 100,> 100,> 100,> 100,> 100,> 100,> 100,> 100,> 100,> 100,> 100,,,,
NC(CSCc1ccc(I)cc1)C(=O)O (stereo not given),> 100,> 100,> 100,> 100,> 100,> 100,> 100,> 100,> 100,> 100,> 100,> 100,,,,
C(/C=C/c1ccccc1)=Nc1ccc2c(c1)Cc1ccccc1-2,> 100,> 100,> 100,> 100,> 100,> 100,> 100,> 100,> 100,> 100,> 100,> 100,,,,
c1ccc2c(CN3CCN(Cc4c[nH]c5ccccc45)CC3)c[nH]c2c1,39.4,37.6,29.5,27.8,33.1,29.9,36,28.6,> 100,31.6,30.2,29.1,,,,
CC1=NN(C(=O)c2ccccc2O)C(=O)/C1=C/c1cccc(O)c1,> 100,> 100,> 100,0.323,> 100,2.74,> 100,> 100,> 100,> 100,> 100,37,,,,
CCc1c(CN)c(CC)c(CNC2=NCCN2)c(CC)c1CNC1=NCCN1,> 100,> 100,> 100,> 100,> 100,> 100,> 100,> 100,> 100,> 100,> 100,> 100,,,,
FC(F)(F)c1ccc(Cc2nc3cc4ccccc4cc3[nH]2)cc1,> 100,> 100,> 100,> 100,> 100,> 100,> 100,> 100,> 100,> 100,36.1,> 100,,,,
Cc1nc2c(c(=O)[nH]1)S/C(=C(/C#N)c1nc3ccccc3[nH]1)N2c1ccccc1,> 100,> 100,> 100,> 100,> 100,> 100,> 100,> 100,> 100,,> 100,> 100,,,,
Cc1ccc(S(=O)(=O)N2CCN(S(=O)(=O)c3ccc(C)cc3)CCN(S(=O)(=O)c3ccc(C)cc3)Cc3cc(C#N)c(C#N)cc3CN(S(=O)(=O)c3ccc(C)cc3)CC2)cc1,> 100,> 100,> 100,58.2,> 100,> 100,> 100,> 100,> 100,> 100,> 100,89.1,,,,

SMILES,TGI (EKVX NSCLC) [µM],TGI (OVCAR-8 ovarian) [µM],TGI (MALME-3M melanoma) [µM],TGI (A498 renal) [µM],TGI (KM12 colon) [µM],TGI (UACC-62 melanoma) [µM],TGI (SF-268 CNS) [µM],TGI (HCT-116 colon) [µM],TGI (CCRF-CEM leukemia) [µM],TGI (786-0 renal) [µM],TGI (SNB-75 CNS) [µM],TGI (M14 melanoma) [µM],GI50 (OVCAR-8 ovarian) [µM],GI50 (SF-268 CNS) [µM],GI50 (HCT-116 colon) [µM],GI50 (CCRF-CEM leukemia) [µM]
O=[N+]([O-])c1ccc(-c2cc(O)c3nc4ccccc4n3c2)cc1,> 100,> 100,> 100,> 100,> 100,> 31.6,> 100,> 100,> 100,> 100,> 76.2,> 100,,,,
O=[N+]([O-])c1ccc2nc(Cl)n[n+]([O-])c2c1,39,30.7,29.5,21.2,51.8,27.9,30.7,25.8,2.8,22.8,28.2,27.5,,,,
C=C(C)C(=O)O[C@H]1CC2=C[C@@H](C[C@@]3(C)O[C@@H]3[C@H]3OC(=O)C(=C)[C@@H]31)OC2=O,4.82,0.707,5.62,9.06,8.6,7.61,2.56,4.61,300,,18.4,,0.406,0.34,1.4,1.18
CN(C)CCCC1c2ccccc2Oc2ccc(C(F)(F)F)cc21 (stereo not given),31.3,31.9,15.8,25.9,28.4,23.4,28.5,25.6,31.5,26.7,27.7,14.2,,,,
Clc1c(Cl)c(Cl)c2c(nnn2C2CCCO2)c1Cl (stereo not given),73.4,> 100,80.4,88.7,,> 100,> 100,> 100,77.9,> 100,40.3,> 100,,,,
COc1cc(C(=O)/C=C/c2ccc(OCCSCCCCCCCCCCSCCOc3ccc(/C=C/C(=O)c4cc(OC)c(OC)c(OC)c4)cc3)cc2)cc(OC)c1OC,> 100,> 100,> 100,> 100,> 100,> 100,> 100,> 100,> 100,> 100,> 100,> 100,,,,
CCOC(=O)CCC(NC(=O)Cc1ccc(Nc2nc3ccccc3nc2-c2cccs2)cc1)C(=O)OCC (stereo not given),> 100,,> 100,> 100,> 100,> 100,> 100,> 100,> 100,> 100,> 100,> 100,,,,
Nc1ccccc1Nc1ccccc1C(=O)[O-].Nc1ccccc1Nc1ccccc1C(=O)[O-].[Zn+2],> 100,> 100,> 100,> 100,> 100,68.2,> 100,> 100,> 100,> 100,49.1,> 100,,,,
Cn1c2ccccc2n2c3ncccc3c(=NCCCC(=O)O)c(C#N)c12,> 100,> 100,> 100,> 100,> 100,> 100,> 100,> 100,> 100,> 100,> 100,> 100,,,,
CCCCCCCCCCCCCCCCCCNc1ccn(C2OC(COP(=O)(O)OCC3OC(n4cc(C)c(=O)[nH]c4=O)CC3F)C(O)C2O)c(=O)n1 (stereo not given),20.7,29.3,40.9,> 60.2,14.3,12.6,19.5,42.8,12.4,9.52,37.6,30.9,,,,
CC(C)C1OC(N)=C(C#N)C1(C#N)C#N (stereo not given),> 100,> 100,> 100,> 100,> 100,> 100,> 100,> 100,91.4,> 100,> 100,> 100,,,,
Oc1cc(O)c2ccc(-c3ccc(O)c(O)c3)[o+]c2c1,> 100,> 100,> 100,> 100,> 100,> 100,> 100,> 100,> 100,> 100,> 100,> 100,,,,
O=C1c2cccnc2S(=O)(=O)N1c1ccc(Oc2ccccc2)cc1,> 100,> 100,> 100,> 100,> 100,> 100,> 100,> 100,> 100,> 100,> 100,> 100,,,,
Cc1ccc(S(=O)(=O)CN2C(=O)C(c3ccccc3)(c3ccccc3)C23OC(c2ccc(Cl)cc2)=CC3=O)cc1 (stereo not given),> 10,> 10,> 10,> 10,> 10,> 10,> 10,> 10,> 10,> 10,> 10,> 10,,,,
C[Si](C)(C)C#Cc1cc(-c2nc3ccccc3s2)ccc1N,25.7,32.3,23.7,35,34.2,33.2,32.1,26.6,59.4,30.7,27.5,31,,,,
S=C(NNC1=NCCCCN1)Nc1ccc(Cl)cc1,> 100,> 100,55.7,> 100,> 100,18.9,> 100,> 100,> 100,> 100,> 100,22.1,,,,
COC(=O)c1c(C)cccc1C1CN=NC12Cc1ccccc1C2=O (stereo not given),> 100,> 100,> 100,> 100,> 100,> 100,> 100,> 100,> 100,> 100,> 100,> 87.9,,,,
N#Cc1cnc(-n2[nH]c3c(c2=O)CCCC3)[nH]c1=O,> 100,,> 100,> 100,> 100,> 100,> 100,> 100,> 100,> 100,55.9,> 100,,,,

# — PubChem BioAssay (NCI)
